For assay [1], the system named is Candida albicans. In words: Synergistic antifungal activity against azole-resistant Candida albicans 0304103 assessed as fungal growth inhibition measured upto 24 hrs in presence of FLC by absorbance based assay. In kind it is functional, organism-based. As to conditions: dose 4-16 µg/ml.
For assay [2], the target named is Bromodomain-containing protein 2 (Homo sapiens, UniProt P25440). In words: Inhibition of recombinant BRD2 BD1 (unknown origin) incubated for 120 mins by TR-FRET assay.
The next assay relates to MDA-MB-231. In words: Downregulation of c-Myc expression in human MDA-MB-231 cells incubated for 24 hrs by Western blot analysis. As to conditions: dose 0.2-5 µM. In kind it is functional, cell-based.
The target in assay [3] is Bromodomain-containing protein 4 (Homo sapiens, UniProt O60885). In words: Inhibition of recombinant BRD4 (unknown origin) incubated for 120 mins by TR-FRET assay relative to control. The arrangement: concentration or dose not given beside the values.
Assay [4] has as its system Candida albicans. In words: Antifungal activity FLC-resistant Candida albicans 0304103 assessed as hyphal formation at 32 ug/ml incubated for 3 hrs by inverse fluorescent microscopy. As to conditions: dose 32.0 µg/ml. In kind it is functional, organism-based.
Assay [5] concerns the target T1, Protein deacetylase HDAC6 (Homo sapiens, UniProt Q9UBN7).
T1 sequence (Q9UBN7 whole entry): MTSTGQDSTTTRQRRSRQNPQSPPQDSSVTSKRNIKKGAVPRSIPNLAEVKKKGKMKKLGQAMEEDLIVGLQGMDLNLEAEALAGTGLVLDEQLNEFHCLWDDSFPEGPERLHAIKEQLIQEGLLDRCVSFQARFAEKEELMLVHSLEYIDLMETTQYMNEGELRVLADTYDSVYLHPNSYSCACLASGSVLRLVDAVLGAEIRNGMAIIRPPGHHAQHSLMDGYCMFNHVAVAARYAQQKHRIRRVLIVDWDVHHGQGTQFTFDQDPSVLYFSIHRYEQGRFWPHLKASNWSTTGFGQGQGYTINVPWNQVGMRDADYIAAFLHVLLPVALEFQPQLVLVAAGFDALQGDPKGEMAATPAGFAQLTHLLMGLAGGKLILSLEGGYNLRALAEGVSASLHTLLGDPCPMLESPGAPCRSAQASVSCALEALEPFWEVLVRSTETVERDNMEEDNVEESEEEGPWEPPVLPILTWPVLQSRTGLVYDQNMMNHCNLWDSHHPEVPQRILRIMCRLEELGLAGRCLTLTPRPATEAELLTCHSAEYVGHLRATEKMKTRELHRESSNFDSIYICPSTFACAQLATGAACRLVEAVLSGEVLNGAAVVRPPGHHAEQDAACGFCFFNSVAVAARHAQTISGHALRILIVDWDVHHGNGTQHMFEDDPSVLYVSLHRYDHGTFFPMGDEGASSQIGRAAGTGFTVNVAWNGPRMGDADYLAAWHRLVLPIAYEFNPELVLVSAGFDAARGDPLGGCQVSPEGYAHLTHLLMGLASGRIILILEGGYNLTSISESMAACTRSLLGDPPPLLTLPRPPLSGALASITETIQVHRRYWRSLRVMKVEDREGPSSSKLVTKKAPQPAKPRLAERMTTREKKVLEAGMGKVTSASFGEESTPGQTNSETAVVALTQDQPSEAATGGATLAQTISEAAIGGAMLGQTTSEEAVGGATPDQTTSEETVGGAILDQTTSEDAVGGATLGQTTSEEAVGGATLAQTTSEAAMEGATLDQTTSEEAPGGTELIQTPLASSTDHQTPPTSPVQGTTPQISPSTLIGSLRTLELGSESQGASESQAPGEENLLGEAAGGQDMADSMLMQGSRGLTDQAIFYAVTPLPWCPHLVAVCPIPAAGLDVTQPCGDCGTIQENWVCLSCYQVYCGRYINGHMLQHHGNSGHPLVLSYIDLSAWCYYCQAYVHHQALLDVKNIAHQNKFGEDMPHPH
In words: Inhibition of N-terminal GST-tagged recombinant human HDAC6 expressed in baculovirus infected Sf9 insect cells using Ac-Leu-Gly-Lys(Ac)-AMC as substrate incubated for 30 mins by fluorescence based assay.

For assay [6], the system named is Candida albicans. In words: microbe, parasite or virus in culture. As to conditions: 0304103, time 48 hrs. In kind it is functional.
Description: Synergistic antifungal activity against azole-resistant Candida albicans 0304103 assessed as fungal growth inhibition measured after 48 hrs in presence of FLC by CLSI based micro-dilution broth method
Assay [7] has as its target Bromodomain-containing protein 3 (Homo sapiens, UniProt Q15059). In words: Inhibition of recombinant BRD3 BD1 (unknown origin) incubated for 120 mins by TR-FRET assay.
In a further assay the test system is HL-60. In words: Antiproliferative activity against human HL-60 cells assessed as cell growth inhibition incubated for 24 hrs by CCK-8 assay. As to conditions: HL-60, 24 h. In kind it is functional, cell-based.

Structures are written as SMILES. Converted amounts (≈) assume the structure as drawn. The source made the active and inactive calls. No cut-off for these calls is given here.

Here are results for 2 compounds from ChEMBL document CHEMBL5316308, “BET-HDAC Dual Inhibitors for Combinational Treatment of Breast Cancer and Concurrent Candidiasis” (J Med Chem, 2023).

Chain of Bromodomain-containing protein 3 (Q15059 whole entry): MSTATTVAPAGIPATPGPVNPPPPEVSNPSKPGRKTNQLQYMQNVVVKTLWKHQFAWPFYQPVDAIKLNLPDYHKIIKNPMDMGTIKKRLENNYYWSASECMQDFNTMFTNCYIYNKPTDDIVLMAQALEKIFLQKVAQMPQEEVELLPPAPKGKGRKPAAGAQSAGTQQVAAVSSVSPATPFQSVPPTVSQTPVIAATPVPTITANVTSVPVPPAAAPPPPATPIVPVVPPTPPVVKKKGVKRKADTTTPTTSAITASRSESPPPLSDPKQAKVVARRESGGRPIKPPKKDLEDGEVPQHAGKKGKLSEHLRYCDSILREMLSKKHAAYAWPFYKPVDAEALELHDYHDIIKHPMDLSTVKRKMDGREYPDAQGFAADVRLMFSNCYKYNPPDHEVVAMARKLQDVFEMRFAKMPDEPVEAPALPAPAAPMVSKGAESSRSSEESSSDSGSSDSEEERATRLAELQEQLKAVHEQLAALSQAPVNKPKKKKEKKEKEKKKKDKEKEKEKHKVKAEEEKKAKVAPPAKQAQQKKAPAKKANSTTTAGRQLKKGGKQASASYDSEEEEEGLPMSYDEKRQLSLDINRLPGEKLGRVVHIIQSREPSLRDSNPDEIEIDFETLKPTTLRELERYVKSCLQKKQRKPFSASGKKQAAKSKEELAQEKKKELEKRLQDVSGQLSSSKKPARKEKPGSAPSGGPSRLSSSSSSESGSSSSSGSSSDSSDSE
Chain of Bromodomain-containing protein 2 (P25440 whole entry): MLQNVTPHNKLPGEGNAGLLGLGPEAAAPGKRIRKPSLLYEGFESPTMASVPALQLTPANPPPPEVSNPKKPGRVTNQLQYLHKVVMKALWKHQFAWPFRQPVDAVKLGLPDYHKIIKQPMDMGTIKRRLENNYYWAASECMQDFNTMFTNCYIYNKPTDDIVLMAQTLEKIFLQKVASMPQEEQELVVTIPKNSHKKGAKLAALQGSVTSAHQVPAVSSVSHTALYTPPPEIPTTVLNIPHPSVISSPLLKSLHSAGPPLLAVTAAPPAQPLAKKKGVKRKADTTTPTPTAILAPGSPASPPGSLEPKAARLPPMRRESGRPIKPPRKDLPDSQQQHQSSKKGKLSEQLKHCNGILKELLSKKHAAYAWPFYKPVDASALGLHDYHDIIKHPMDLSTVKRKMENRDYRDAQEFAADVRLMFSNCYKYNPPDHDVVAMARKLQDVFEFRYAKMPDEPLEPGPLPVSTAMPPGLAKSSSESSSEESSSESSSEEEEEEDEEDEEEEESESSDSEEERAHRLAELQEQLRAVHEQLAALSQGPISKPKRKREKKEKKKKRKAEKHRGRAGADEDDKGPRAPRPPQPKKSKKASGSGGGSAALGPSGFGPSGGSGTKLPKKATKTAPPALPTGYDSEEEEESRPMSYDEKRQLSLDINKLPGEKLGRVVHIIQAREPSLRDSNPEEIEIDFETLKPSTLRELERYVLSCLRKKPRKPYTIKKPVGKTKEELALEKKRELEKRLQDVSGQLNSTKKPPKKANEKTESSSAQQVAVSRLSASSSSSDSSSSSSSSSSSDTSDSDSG

Turning to `COc1cc2c(cc1-c1c(C)noc1C)[nH]c1ncnc(NCCCCCCC(=O)NO)c12`, the Activity result with Candida albicans [1] and in the assay with MDA-MB-231 was “Dose-Dependent Effect” in each case. The IC50 in assay [2] stood at 174 nM; in [5], 9 nM; in assay [7], 113 nM; with HL-60 it was 1200 nM. Moreover, the inhibition in assay [3] turned out to be 93.7%. The result in the assay with Candida albicans [4] was Active. For the same compound, in the assay with Candida albicans [6], the MIC80 turned out to be 0.5 µg/mL (≈ 1.1 µM).
On to `COc1cc2c(cc1-c1c(C)noc1C)[nH]c1nc(C)nc(NCCCCCCC(=O)NO)c12`, for which the Activity entry in the assay on Candida albicans [1] and in the assay with MDA-MB-231 was “Dose-Dependent Effect” in each case. For the same compound, the IC50 in assay [2] came out at 2010 nM; in assay [5], 14 nM; in assay [7] it was 2590 nM; with HL-60, 1900 nM. In addition, the inhibition in assay [3] is 91.7%. The outcome with Candida albicans [4] was Active. For the same compound, the MIC80 in the assay with Candida albicans [6] worked out at 8 µg/mL (≈ 17.1 µM).
